Data reported in patent US8835422B2, “Substituted imidazoheterocycle derivatives” (Cara Therapeutics, Inc., priority 2008, dated 2014).

Key:
Format in all cases: cell-based
[1] = biological target: T1, human CB2 receptor (hCB2) (Homo sapiens, UniProt P34972); assay: cAMP assay (LANCE TR-FRET) in CHO-K1 cells stably expressing hCB2
T1 construct: host or cells: CHO-K1
Method: (§1) The ability of compounds to act as agonists or inverse agonists at human CB2 and CB1 receptors (hCB2, hCB1, respectively) and at the rat CB2 receptor (rCB2) was determined by measuring changes in intracellular cAMP levels. Chinese Hamster Ovary (CHO-K1) cell lines stably expressing hCB2 (Genebank: X74328) or hCB1 (Genebank: X54937) were purchased from Euroscreen (Gosselies, Belgium). The rat CB2 receptor was expressed from genomic DNA (provided by M. Abood, California Pacific Medical Center) in CHO-K1 cells from expression plasmid vector, pcDNA3.1.
(§2) Receptor mediated responses were determined by measuring changes in intracellular cAMP using LANCE cAMP detection kit (cat #AD0264, Perkin Elmer, Wellesley, Mass.) based on time-resolved fluorescence resonance energy transfer (TR-FRET).
(§3) On the day of the experiment, cells were spun at low speed for 5 min at room temperature. […] Cell clumps were removed by filtering through cell strainer 40 μm (BD Falcon, Discovery Labware, Bedford, Mass.) and diluted to 2×10^5 cells/mL. Antibody supplied with the LANCE cAMP immunoassay kit was then added according to the manufacturer's instructions. An aliquot of cells was taken for un-induced controls. […] Cells were then incubated for 30 min at room temperature prior to adding to Proxiplates containing test compounds (final DMSO concentration was less than 0.5%) with a Multidrop bulk dispenser, followed by a sixty minute incubation at room temperature. The response was stopped by addition of the detection mix supplied with the LANCE kit. The reagents were allowed to equilibrate for three hours prior to reading on an Envision multi-mode detector (Perkin-Elmer). TR-FRET was measured using a 330-380 nm excitation filter, a 665 nm emission filter, dichroic mirror 380 nm and Z=1 mm. Cyclic AMP concentrations in each well were back-calculated from a cAMP standard curve run concurrently during each assay. Each plate contained 16 wells of forskolin stimulated cells and 16 wells of forskolin plus CP55,940-treated cells. […] Concentrations of cAMP were expressed as a percent of the difference of these two groups of wells.

[2] = biological target: human CB1 receptor (hCB1) (Homo sapiens, UniProt P21554); assay: cAMP assay (LANCE TR-FRET) in CHO-K1 cells stably expressing hCB1
Method: as §1, §2, §3

rat CB2 receptor (rCB2) = biological target: T2, rat CB2 receptor (rCB2) (Rattus norvegicus, UniProt Q9QZN9); assay: cAMP assay (LANCE TR-FRET) in CHO-K1 cells expressing rat CB2
T2 construct: expressed in transfected cells; host or cells: CHO-K1 (plasmid pcDNA3.1)
T2 sequence (Q9QZN9 1-360): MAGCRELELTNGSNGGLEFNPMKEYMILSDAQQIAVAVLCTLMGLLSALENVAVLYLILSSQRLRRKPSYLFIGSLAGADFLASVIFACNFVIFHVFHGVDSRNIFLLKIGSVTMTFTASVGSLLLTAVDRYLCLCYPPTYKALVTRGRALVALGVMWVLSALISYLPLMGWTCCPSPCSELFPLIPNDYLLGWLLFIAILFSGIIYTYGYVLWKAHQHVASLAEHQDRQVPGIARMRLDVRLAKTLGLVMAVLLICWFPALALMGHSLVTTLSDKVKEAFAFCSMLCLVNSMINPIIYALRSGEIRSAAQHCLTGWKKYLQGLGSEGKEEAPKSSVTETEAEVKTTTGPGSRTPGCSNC
Method: as §1, §2, §3

Sequence of human CB1 receptor (hCB1) (P21554 whole entry): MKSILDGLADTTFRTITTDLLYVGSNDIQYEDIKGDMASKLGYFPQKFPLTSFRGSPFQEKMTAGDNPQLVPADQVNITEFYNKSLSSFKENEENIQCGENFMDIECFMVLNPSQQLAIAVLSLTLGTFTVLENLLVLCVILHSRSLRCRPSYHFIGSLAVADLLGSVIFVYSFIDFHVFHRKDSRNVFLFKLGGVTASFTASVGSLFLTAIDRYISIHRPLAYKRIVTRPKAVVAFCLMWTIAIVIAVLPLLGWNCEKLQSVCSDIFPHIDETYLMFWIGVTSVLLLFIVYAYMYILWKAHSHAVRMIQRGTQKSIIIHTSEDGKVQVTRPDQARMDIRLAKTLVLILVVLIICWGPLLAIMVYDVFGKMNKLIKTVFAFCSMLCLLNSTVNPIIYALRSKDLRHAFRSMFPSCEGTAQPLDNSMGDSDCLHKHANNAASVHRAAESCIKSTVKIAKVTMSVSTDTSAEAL
T1 sequence (P34972 whole entry): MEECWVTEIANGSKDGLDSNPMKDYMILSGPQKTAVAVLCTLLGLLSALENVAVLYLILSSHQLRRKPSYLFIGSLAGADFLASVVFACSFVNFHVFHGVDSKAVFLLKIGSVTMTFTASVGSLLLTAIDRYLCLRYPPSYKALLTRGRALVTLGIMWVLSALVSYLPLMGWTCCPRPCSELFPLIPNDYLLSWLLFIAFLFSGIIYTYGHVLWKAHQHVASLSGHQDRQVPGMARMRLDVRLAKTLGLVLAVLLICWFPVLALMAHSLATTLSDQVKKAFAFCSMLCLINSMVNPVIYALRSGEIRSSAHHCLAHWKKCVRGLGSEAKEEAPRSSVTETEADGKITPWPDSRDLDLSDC

Structure (SMILES) | EC50 [1] [nM] | EC50 [2] [nM] | EC50 (rat CB2 receptor (rCB2)) [nM]
O=C(N[C@@H]1CCCc2ccccc21)c1nc(-c2ccc(F)c(F)c2)n2c1CCCCC2 [Compound 1-21, (R)-3-(3,4-difluorophenyl)-N-(1,2,3,4-tetrahydronaphthalen-1-yl)-6,7,8,9-tetrahydro-5H-imidazo[1,5-a]azepine-1-carboxamide] | 0.1 to 10 |  | 
O=C(NC1CCc2ccccc21)c1nc(-c2ccc(F)c(F)c2)n2c1CCCCC2 (stereo not drawn) [Compound 1-19, 3-(3,4-difluorophenyl)-N-(2,3-dihydro-1H-inden-1-yl)-6,7,8,9-tetrahydro-5H-imidazo[1,5-a]azepine-1-carboxamide] | 0.1 to 10 |  | 
COC(=O)[C@@H](NC(=O)c1nc(-c2ccc(F)c(F)c2)n2c1CCCCC2)C(C)(C)C [Compound 1-23, (S)-methyl 2-(3-(3,4-difluorophenyl)-6,7,8,9-tetrahydro-5H-imidazo[1,5-a]azepine-1-carboxamido)-3,3-dimethylbutanoate] | 0.1 to 10 | 0.1 to 10 | 
CC[C@H](C)[C@H](NC(=O)c1nc(-c2ccc(F)c(F)c2)n2c1CCCCC2)C(N)=O [Compound 1-14, N-((2S,3S)-1-amino-3-methyl-1-oxopentan-2-yl)-3-(3,4-difluorophenyl)-6,7,8,9-tetrahydro-5H-imidazo[1,5-a]azepine-1-carboxamide] | 0.1 to 10 | 0.1 to 10 | 
CNC(=O)[C@@H](NC(=O)c1nc(-c2ccccc2)n2c1CCNCC2)C(C)(C)C [Compound 3-8, (S)-N-(3,3-dimethyl-1-(methylamino)-1-oxobutan-2-yl)-3-phenyl-6,7,8,9-tetrahydro-5H-imidazo[1,5-d][1,4]diazepine-1-carboxamide] |  |  | 10 to 100
CNC(=O)[C@@H](NC(=O)c1nc(-c2ccc(Cl)cc2F)n2c1COCCC2)C(C)(C)C [Compound 1-13, (S)-3-(4-chloro-2-fluorophenyl)-N-(3,3-dimethyl-1-(methylamino)-1-oxobutan-2-yl)-5,6,7,9-tetrahydroimidazo[5,1-c][1,4]oxazepine-1-carboxamide] | 0.1 to 10 | 0.1 to 10 | 
CCN1Cc2c(C(=O)N[C@H](C(=O)NC)C(C)(C)C)nc(-c3ccc(F)c(F)c3)n2CC(C)C1 (mixture of isomers) [Compound 2-3, (S)-3-(3,4-difluorophenyl)-N-(3,3-dimethyl-1-(methylamino)-1-oxobutan-2-yl)-8-ethyl-6-methyl-6,7,8,9-tetrahydro-5H-imidazo[1,5-a][1,4]diazepine-1-carboxamide] | 10 to 100 | 10 to 100 | 
O=C(N[C@H]1c2ccccc2C[C@H]1O)c1nc(-c2ccc(F)c(F)c2)n2c1CCCCC2 [Compound 1-18, 3-(3,4-difluorophenyl)-N-((1S,2R)-2-hydroxy-2,3-dihydro-1H-inden-1-yl)-6,7,8,9-tetrahydro-5H-imidazo[1,5-a]azepine-1-carboxamide] | 0.1 to 10 | 10 to 100 | 
CNC(=O)[C@@H](NC(=O)c1nc(-c2ccccc2)n2c1CCOCC2)C(C)(C)C [Compound 1-8, (S)—N-(3,3-dimethyl-1-(methylamino)-1-oxobutan-2-yl)-3-phenyl-5,6,8,9-tetrahydroimidazo[1,5-d][1,4]oxazepine-1-carboxamide] | 10 to 100 |  | 
CC(C)(C)[C@H](NC(=O)c1nc(-c2ccccc2)n2c1CCCCC2)C(=O)N1CCC1 [Compound 1-4, (S)—N-(1-(azetidin-1-yl)-3,3-dimethyl-1-oxobutan-2-yl)-3-phenyl-6,7,8,9-tetrahydro-5H-imidazo[1,5-a]azepine-1-carboxamide] | 0.1 to 10 | 10 to 100 | 
CC(C)(C)[C@H](NC(=O)c1nc(-c2ccc(F)c(F)c2)n2c1COCCC2)C(=O)NCCO [Compound 1-11, (S)-3-(3,4-difluorophenyl)-N-(1-(2-hydroxyethylamino)-3,3-dimethyl-1-oxobutan-2-yl)-5,6,7,9-tetrahydroimidazo[5,1-c][1,4]oxazepine-1-carboxamide] | 10 to 100 |  | 
COC(=O)[C@@H](NC(=O)c1nc(-c2ccccc2)n2c1CCCCC2)C(C)(C)C [Compound 1-24, (S)-methyl 3,3-dimethyl-2-(3-phenyl-6,7,8,9-tetrahydro-5H-imidazo[1,5-a]azepine-1-carboxamido)butanoate] | 0.1 to 10 | 0.1 to 10 | 
CC(C)(C)[C@H](NC(=O)c1nc(-c2cc(F)ccc2F)n2c1CCCCC2)C(=O)N1CCC1 [Compound 1-5, (S)—N-(1-(azetidin-1-yl)-3,3-dimethyl-1-oxobutan-2-yl)-3-(2,5-difluorophenyl)-6,7,8,9-tetrahydro-5H-imidazo[1,5-a]azepine-1-carboxamide] | 0.1 to 10 | 0.1 to 10 | 
CNC(=O)[C@@H](NC(=O)c1nc(-c2ccc(F)c(F)c2)n2c1CCCC2)C(C)(C)C [Compound 1-7, (S)-3-(3,4-difluorophenyl)-N-(3,3-dimethyl-1-(methyl-amino)-1-oxobutan-2-yl)-5,6,7,8-tetrahydroimidazo[1,5-a]pyridine-1-carboxamide] | 0.1 to 10 | 0.1 to 10 | 
CNC(=O)[C@@H](NC(=O)c1nc(-c2ccc(F)c(F)c2)n2c1CN(C)C(C)CC2)C(C)(C)C (single isomer, unassigned) [Compound 2-4] | 10 to 100 |  | 
CC(C)(C)[C@@H](CO)NC(=O)c1nc(-c2ccc(F)c(F)c2)n2c1CCCCC2 [Compound 1-6, (S)-3-(3,4-difluorophenyl)-N-(1-hydroxy-3,3-dimethylbutan-2-yl)-6,7,8,9-tetrahydro-5H-imidazo[1,5-a]azepine-1-carboxamide] | 0.1 to 10 |  | 
CNC(=O)[C@@H](NC(=O)c1nc(-c2ccc(F)c(F)c2)n2c1CN(C)CC(C)(C)C2)C(C)(C)C [Compound 2-1, (S)-3-(3,4-difluorophenyl)-N-(3,3-dimethyl-1-(methylamino)-1-oxobutan-2-yl)-6,6,8-trimethyl-6,7,8,9-tetrahydro-5H-imidazo[1,5-a][1,4]diazepine-1-carboxamide] | 10 to 100 |  | 
O=C(N[C@H]1c2ccccc2C[C@@H]1O)c1nc(-c2ccc(F)c(F)c2)n2c1CCCCC2 [Compound 1-15, 3-(3,4-difluorophenyl)-N-((1S,2S)-2-hydroxy-2,3-dihydro-1H-inden-1-yl)-6,7,8,9-tetrahydro-5H-imidazo[1,5-a]azepine-1-carboxamide] | 0.1 to 10 |  | 
O=C(N[C@@H]1c2ccccc2C[C@@H]1O)c1nc(-c2ccc(F)c(F)c2)n2c1CCCCC2 [Compound 1-16, 3-(3,4-difluorophenyl)-N-((1R,2S)-2-hydroxy-2,3-dihydro-1H-inden-1-yl)-6,7,8,9-tetrahydro-5H-imidazo[1,5-a]azepine-1-carboxamide] | 10 to 100 | 10 to 100 | 
CNC(=O)[C@@H](NC(=O)c1nc(-c2cc(F)ccc2F)n2c1COCCC2)C(C)(C)C [Compound 1-12, (S)-3-(2,5-difluorophenyl)-N-(3,3-dimethyl-1-(methylamino)-1-oxobutan-2-yl)-5,6,7,9-tetrahydroimidazo[5,1-c][1,4]oxazepine-1-carboxamide] | 0.1 to 10 | 0.1 to 10 | 
O=C(N[C@@H]1c2ccccc2C[C@H]1O)c1nc(-c2ccc(F)c(F)c2)n2c1CCCCC2 [Compound 1-17, 3-(3,4-difluorophenyl)-N-((1R,2R)-2-hydroxy-2,3-dihydro-1H-inden-1-yl)-6,7,8,9-tetrahydro-5H-imidazo[1,5-a]azepine-1-carboxamide] | 10 to 100 | 10 to 100 | 
CC(C)(C)[C@H](NC(=O)c1nc(-c2ccccc2)n2c1CCCCC2)C(=O)NCCF [Compound 1-22, (S)—N-(1-(2-fluoroethylamino)-3,3-dimethyl-1-oxobutan-2-yl)-3-phenyl-6,7,8,9-tetrahydro-5H-imidazo[1,5-a]azepine-1-carboxamide] | 0.1 to 10 | 10 to 100 | 
O=C(N[C@H]1CCCc2ccccc21)c1nc(-c2ccc(F)c(F)c2)n2c1CCCCC2 [Compound 1-20, (S)-3-(3,4-difluorophenyl)-N-(1,2,3,4-tetrahydronaphthalen-1-yl)-6,7,8,9-tetrahydro-5H-imidazo[1,5-a]azepine-1-carboxamide] | 0.1 to 10 |  | 
